From publication PMC10078150 (2023)

Tests used:
[1] = tested on: 26_ds (DNA, duplex) CAATCGGATCGAATTCGATCCGATTG; assay: fluorescent indicator displacement; details: K+ 40 mM (30 mM KCl + potassium phosphate); 10 mM potassium phosphate pH 7, 25 °C; 0.5 µM thiazole orange displaced, 0.25 µM DNA
[2] = tested on: 22_hTelo (DNA, G4) AGGGTTAGGGTTAGGGTTAGGG; assay: fluorescent indicator displacement; details: K+ 40 mM (30 mM KCl + potassium phosphate); 10 mM potassium phosphate pH 7, 25 °C; 0.5 µM thiazole orange displaced, 0.25 µM DNA
[3] = tested on: 21_c-kit2 (DNA, G4) CGGGCGGGCGCGAGGGAGGGG; assay: fluorescent indicator displacement; details: K+ 40 mM (30 mM KCl + potassium phosphate); 10 mM potassium phosphate pH 7, 25 °C; 0.5 µM thiazole orange displaced, 0.25 µM DNA
[4] = tested on: F21T_k-ras (DNA, G4) GGGCGGTGTGGGAATAGGGAA; assay: FRET melting; details: K+ 10 mM (potassium phosphate); 10 mM potassium phosphate pH 7; 0.8 µM compound, 0.4 µM DNA, no competitor dsDNA
[5] = tested on: 22_k-ras (DNA, G4) AGGGCGGTGTGGGAATAGGGAA; assay: fluorescent indicator displacement; details: K+ 40 mM (30 mM KCl + potassium phosphate); 10 mM potassium phosphate pH 7, 25 °C; 0.5 µM thiazole orange displaced, 0.25 µM DNA
[6] = tested on: 22_c-kit1 (DNA, G4) AGGGAGGGCGCTGGGAGGAGGG; assay: fluorescent indicator displacement; details: K+ 40 mM (30 mM KCl + potassium phosphate); 10 mM potassium phosphate pH 7, 25 °C; 0.5 µM thiazole orange displaced, 0.25 µM DNA
[7] = tested on: F21T_hTelo (DNA, G4) GGGTTAGGGTTAGGGTTAGGG; assay: FRET melting; details: K+ 10 mM (potassium phosphate); 10 mM potassium phosphate pH 7; 0.8 µM compound, 0.4 µM DNA, no competitor dsDNA
[8] = tested on: F21T_c-kit1 (DNA, G4) GGGAGGGCGCTGGGAGGAGGG; assay: FRET melting; details: K+ 10 mM (potassium phosphate); 10 mM potassium phosphate pH 7; 0.8 µM compound, 0.4 µM DNA, no competitor dsDNA
[9] = tested on: 22_c-myc (DNA, G4) TGAGGGTGGGTAGGGTGGGTAA; assay: fluorescent indicator displacement; details: K+ 40 mM (30 mM KCl + potassium phosphate); 10 mM potassium phosphate pH 7, 25 °C; 0.5 µM thiazole orange displaced, 0.25 µM DNA
[10] = tested on: F21T_c-myc (DNA, G4) GAGGGTGGGTAGGGTGGGTAA; assay: FRET melting; details: K+ 10 mM (potassium phosphate); 10 mM potassium phosphate pH 7; 0.8 µM compound, 0.4 µM DNA, no competitor dsDNA
[11] = tested on: F20T_c-kit2 (DNA, G4) GGGCGGGCGCGAGGGAGGGG; assay: FRET melting; details: K+ 10 mM (potassium phosphate); 10 mM potassium phosphate pH 7; 0.8 µM compound, 0.4 µM DNA, no competitor dsDNA

Row | DC50 [1] [nM] | DC50 [2] [nM] | DC50 [3] [nM] | ΔTm [4] [°C] | DC50 [5] [nM] | DC50 [6] [nM] | ΔTm [7] [°C] | ΔTm [8] [°C] | DC50 [9] [nM] | ΔTm [10] [°C] | ΔTm [11] [°C] | SMILES
1 | 3900 ± 200 | 1060 ± 30 | 850 ± 50 | 21.0 | 450 ± 20 | 870 ± 20 | 24.6 | 23.7 | 400 ± 30 |  |  | C(=N\[C@@H](COCc1ccc(-c2ccccn2)nc1)c1ccccc1)/c1ccc(OCc2cn(Cc3ccccc3)nn2)cn1.C(=N\[C@@H](COCc1ccc(-c2ccccn2)nc1)c1ccccc1)/c1ccc(OCc2cn(Cc3ccccc3)nn2)cn1.C(=N\[C@@H](COCc1ccc(-c2ccccn2)nc1)c1ccccc1)/c1ccc(OCc2cn(Cc3ccccc3)nn2)cn1.[Fe+2].[Fe+2]
2 | 5300 ± 300 | 1950 ± 90 | 1260 ± 60 |  | 650 ± 30 | 1410 ± 30 |  | 27.2 | 800 ± 40 |  |  | C(=N\[C@@H](COCc1ccc(-c2ccccn2)nc1)c1ccccc1)/c1ccccn1.C(=N\[C@@H](COCc1ccc(-c2ccccn2)nc1)c1ccccc1)/c1ccccn1.C(=N\[C@@H](COCc1ccc(-c2ccccn2)nc1)c1ccccc1)/c1ccccn1.[Fe+2].[Fe+2]
3 | 2600 ± 100 | 1050 ± 50 | 780 ± 50 | 41.8 | 270 ± 10 | 790 ± 30 |  |  | 300 ± 30 | 5.2 | 11.9 | C(=N\[C@H](COCc1ccc(-c2ccccn2)nc1)c1ccccc1)/c1ccc(OCc2cn(Cc3ccccc3)nn2)cn1.C(=N\[C@H](COCc1ccc(-c2ccccn2)nc1)c1ccccc1)/c1ccc(OCc2cn(Cc3ccccc3)nn2)cn1.C(=N\[C@H](COCc1ccc(-c2ccccn2)nc1)c1ccccc1)/c1ccc(OCc2cn(Cc3ccccc3)nn2)cn1.[Fe+2].[Fe+2]
4 | 3800 ± 200 | 2200 ± 100 | 1050 ± 40 |  | 420 ± 20 | 960 ± 40 | 27.6 |  | 530 ± 20 | 11.7 | 19.8 | C(=N\[C@H](COCc1ccc(-c2ccccn2)nc1)c1ccccc1)/c1ccccn1.C(=N\[C@H](COCc1ccc(-c2ccccn2)nc1)c1ccccc1)/c1ccccn1.C(=N\[C@H](COCc1ccc(-c2ccccn2)nc1)c1ccccc1)/c1ccccn1.[Fe+2].[Fe+2]
